Data set [1] concerns HIF-2α. In words: HIF-2α protein expression in HK-2 cells (Western blot). Type of data set: cell-based, human. Particulars: 50 μM ZnCl2, Western blot, 4 hours. The source says:
(§1) Zn stimulated HIF1α in HK-2 cells.
On the technique in general: In western blotting, separated proteins are transferred to a membrane and probed.

The subject of data set [2] is HIF-1α. In words: HIF-1α protein expression in HK-2 cells (Western blot). The data set is classed as cell-based, human. Particulars: 50 μM ZnCl2, Western blot, at 4 hours following exposure, vs controls.
Description: as §1

The subject of data set [3] is HIF-1α. In words: HIF-1α protein expression in ZnCl2-perfused human kidney tissue (Western Blot). The method, then:
The blood supply to the excised tissue was provided by the renal artery into which the ZnCl2 solution was administered. In an initial study a 25% increase in HIF-1α expression in normal human kidney perfused with Zn compared to saline perfused tissue was observed.

The subject of data set [4] is sheep left ventricle myocardium. In words: Myocardial ischaemia-reperfusion in sheep (Evan's blue / TTC staining). Type of data set: in vivo.
A short description of data set [5]: Tolerability of intravenous ZnCl2 in sheep. The data set is classed as in vivo. Particulars: 0.1 to 2 mg/kg of body weight i.v. at 24 hours and 4 hours prior to surgery; preliminary results. On the procedure:
(§2) Following the 4 hour injection, day 0 blood samples were taken.

Data set [6] deals with HIF-3α. In words: HIF-3α protein expression in HK-2 cells (Western blot). The data set is classed as cell-based, human. Conditions: 50 μM ZnCl2, Western blot.
Description: as §1

In data set [7] the test system is HIF-1α. In words: HIF-1α protein expression in ACHN cells (Western blot). Type of data set: cell-based, human. Conditions: 50 μM ZnCl2, Western blot, at 4 hours following exposure, vs controls. From the text:
(§3) Zn stimulated HIF1α in ACHN cells.

Data set [8] concerns pAKT. In words: Phosphorylation of AKT in ACHN cells (Western blot). The data set is classed as cell-based, human. Conditions: ZnCl2 for 4 hours.
Description: as §3

Data set [9] has as its system pAKT. In words: Phosphorylation of AKT in HK-2 cells (Western blot). The data set is classed as cell-based, human. Conditions: ZnCl2 for 4 hours.
Description: as §1

Data set [10] concerns HIF-2α. In words: HIF-2α protein expression in ACHN cells (Western blot). Particulars: 50 μM ZnCl2, Western blot, 4 hours. Type of data set: cell-based, human.
Description: as §3

A further data set has as its system sheep kidneys. In words: Renal ischaemia-reperfusion injury in sheep (unilateral nephrectomy, 60 min renal ischaemia). The data set is classed as in vivo. Conditions: for ischaemic burden (area under curve, serum creatinine and serum urea): 0.5 mg/kg dosed at 24 hours and 4 hours pre-ischaemia, compared to controls and single 24 hr or 4 hr dosing; for inhibition of ischaemia-reperfusion injury, as measured by serum creatinine and urea levels / adverse effects of ischaemia-reperfusion in sheep kidneys (trend towards higher serum creatinine and urea levels): compared to controls. On the procedure: as §2
Controls (n=4) received a unilateral nephrectomy and were administered saline at 24 hours and 4 hours prior to surgery.
Another group of sheep (n=1) received the Flavonoid based antioxidant (3′,4′ dihydroxyflavonol) at 6.6 mg/kg of body weight 1 hours prior to surgery.
Sheep were anaesthetised prior to surgery with intravenous sodium thiopentone (15 mg/kg) for endotracheal intubation (cuffed tube size 10). Maintenance of anaesthesia was carried out by means of oxygen/air/isoflurane (1.5-2.0%). Fractional inspired oxygen was altered to maintain PaO2 at approximately 100 mmHg, and ventilation was controlled to maintain PaCO2 at approximately 40 mmHg.
Following general anaesthesia, the right kidney was removed. A flow probe (4 mm) was implanted into the left kidney and the renal hilum (arteries and veins) supplying blood to the kidney were clamped using a vascular clamp for 60 minutes. […] General anaesthesia was then reversed and the sheep were allowed to recover. Renal blood flow was measured, blood samples were taken daily from the sheep over a 1-week period and the level of urea and creatinine was determined. Blood samples were collected into lithium heparin tubes (Microtainer, Becton-Dickinson). Blood samples were centrifuged and aliquots stored at −20° C. till analysis for creatinine and urea by the Clinical Trials Department, Austin Pathology, Heidelberg, Australia. Creatinine and urea in the blood serum samples were measured on a fully automated Roche Cobas 8000 c702 analyser. The kinetic colorimetric assay for creatinine determination is based on the Jaffé method. The kinetic colorimetric assay for urea is based on hydrolyzation of Urea to ammonium catalysed by urease followed by reaction of ammonium with 2-oxoglutarate in the presence of glutamate dehydrogenase and the coenzyme NADH. The rate of decrease in the NADH concentration is directly proportional to the urea concentration in the specimen and is measured photometrically.
As 0.5 mg/kg had been established as an effective dose to inhibit renal ischemia-reperfusion injury, the dosing experiments above were repeated to investigate the effect of multiple dosing. Sheep were subjected to uninephrectomy and 60 min of renal ischaemia followed by reperfusion. Serum creatinine and serum urea levels were measured before Zn pre-treatment (baseline), before ischaemia (Day 0) and for 7 days after reperfusion. […] Data are expressed as mean±SEM values (n=4, except 24 hr only group, n=1).

Data set [11] relates to HIF-3α. In words: HIF-3α protein expression in ACHN cells (Western blot). The data set is classed as cell-based, human. Particulars: 50 μM ZnCl2, Western blot.
Description: as §3

Another data set relates to mice. Conditions: cited from earlier work.
The test system of data set [12] is rats. Conditions: 191 mg zinc/kg/day as zinc acetate in drinking water for 3 months; cited from earlier work.
Data set [13] deals with rats. Particulars: cited from earlier work.
A further data set relates to ferrets. Conditions: 390 mg zinc/kg of body weight per day as zinc oxide in the diet for 3-13 days; cited from earlier work.
Another data set concerns humans. Particulars: cited from earlier work.
Setting [14] is: 0.1 mg/kg of body weight i.v. at 24 hours and 4 hours prior to 60 min ischaemia.
The mark [15] stands for this setting: 0.5 mg/kg of body weight i.v. at 24 hours and 4 hours prior to 60 min ischaemia.

Entries after “also recorded” stand apart in the source; their conditions may differ.

Take `[Cl-].[Cl-].[Zn+2]` [ZnCl2, zinc chloride]: the HIF-2α protein expression result in the data set with HIF-2α [1] is “increase”; in the data set on HIF-2α [1] (listed as zinc), “stimulated”; in the data set with HIF-2α [10] it was “increase”; in the data set on HIF-2α [10] (listed as zinc), “stimulated”. The HIF-1α protein expression entry is “increase” with HIF-1α [2]; “enhanced” in the data set with HIF-1α [2] (listed as Zinc chloride); “stimulated” in the data set on HIF-1α [2] (listed as Zn); “stimulates” in the data set on HIF-1α [2] (listed as zinc); “increase” in the data set on HIF-1α [7]; “enhanced” in the data set on HIF-1α [7] (listed as Zinc chloride). In addition, the HIF-1α protein expression entry in the data set on HIF-1α [7] (listed as Zn) was “stimulated”; in the data set with HIF-1α [7] (listed as zinc), “stimulates”. The “increase in HIF-1α expression” value with HIF-1α [3] (50 μM ZnCl2 perfused via segmental renal artery, compared to saline perfused tissue, initial study) is given as 25%. The “HIF-1α protein expression in human kidney tissue” value in the data set with HIF-1α [3] (zinc chloride preconditioning (50 μM perfusion), Western Blot) is reported as “enhanced”. Also, in [4] (dual doses of 0.5 mg/kg ZnCl2 at 24 hours and 4 hours prior to 1 hour ischemia and 3 hour reperfusion), the “infarct in the area of myocardium at risk” value is “no histological signs of an infarct”. For the same compound, the “white (infarcted) areas after TTC staining of left ventricle rings” value in data set [4] (dual doses of 0.5 mg/kg ZnCl2 at 24 hours and 4 hours prior to myocardial ischaemia, compared to untreated sheep, 0.5 mg/kg) is recorded as “very little white staining; also recorded: Absence of white areas”. Besides, in data set [5], the “tolerability / adverse effects” value was “without any adverse effects”. Besides, the HIF-3α protein expression entry in the data set on HIF-3α [6] and with HIF-3α [11] was “not” each time. In addition, the “phosphorylation of AKT” value with pAKT [8] and in the data set on pAKT [9] was “stimulated phosphorylation” throughout. For the same compound, the “serum creatinine levels when compared to controls” value in the data set with sheep kidneys (setting [14]) and in the data set with sheep kidneys (setting [15]) was “marked reduction” throughout. Besides, the “serum urea levels when compared to controls” value in the data set on sheep kidneys (setting [14]) and with sheep kidneys (setting [15]) was “marked reduction” in each case. Besides, the “ischaemic burden (area under curve, serum creatinine and serum urea)” value in the data set on sheep kidneys was “significantly (p<0.05) reduced”; with sheep kidneys (listed as zinc), “reduced significantly”. In addition, the “reduction of ischaemic burden (AUC values for serum creatinine and serum urea)” value in the data set on sheep kidneys (0.5 mg/kg zinc, compared to control animals) was approximately 70%. Further, the “inhibition of ischaemia-reperfusion injury, as measured by serum creatinine and urea levels” value with sheep kidneys (1.0 mg/kg of body weight), with sheep kidneys (2.5 mg/kg of body weight) and with sheep kidneys (10.0 mg/kg of body weight) was “failed to inhibit” each time. For the same compound, the “adverse effects of ischaemia-reperfusion in sheep kidneys (trend towards higher serum creatinine and urea levels)” value in the data set with sheep kidneys (2.5 mg/kg of body weight, listed as ZnCl) is listed as “appeared to worsen”; in the data set with sheep kidneys (2.5 mg/kg of body weight, listed as zinc), “worsened renal function”; with sheep kidneys (10.0 mg/kg of body weight, listed as ZnCl) it was “appeared to worsen”; in the data set on sheep kidneys (10.0 mg/kg of body weight, listed as zinc) it was “worsened renal function”. In the data set on sheep kidneys (greater than or equal to 1 mg/kg of body weight, intravascular), the “renal function following ischaemia-reperfusion injury, as determined by serum creatinine and serum urea levels” value is reported as “did not improve renal function”. Further, the “creatinine rise over time” value in the data set with sheep kidneys (two doses of 0.5 mg/kg at 24 and 4 hr prior to ischaemia, compared to single dose at either 24 hr or 4 hr, p<0.05, 0.5 mg/kg) was “significantly (p<0.05) reduced”.

For the compound `O=c1c(O)c(-c2ccc(O)c(O)c2)oc2ccccc12` [antioxidant, 3′,4′ dihydroxyflavonol, reference compound], in the data set with sheep kidneys (antioxidant 6.6 mg/kg of body weight 1 hours prior to surgery (n=1)), the “decrease of ischaemic burden (AUC values for serum creatinine and serum urea)” value was found to be 50%.

In the case of `CC(=O)[O-].CC(=O)[O-].[Zn+2]` [zinc acetate], the “relative lethality (LD50 ranking)” value with mice is “most lethal compound”; in the data set on rats [13] it was “most lethal compound tested”. In addition, in the data set with rats [12], the mortality entry is listed as “Mortality has also been observed”.

Turning to `[O]=[Zn]` [zinc oxide], the “lethality (ferrets dead of ferrets dosed)” value in the data set on ferrets is listed as 3 of 3.

Turning to zinc gluconate, the toxic effects entry with humans (about 2,000-4,000 mg/day of zinc gluconate) is “anemia (consistent with zinc-induced copper deficiency), severe nephrosis, nausea, vomiting, dehydration, electrolyte imbalances, dizziness, lethargy and incoordination, epigastric pain and abdominal pain”.

Regarding zinc sulfate, the “outcome of zinc overdose” value in the data set on humans (oral ingestion of zinc sulfate in large amounts (≥30,000 mg)) was “can result in death”.

The record behind these values is patent US20240238195A1, “METHODS AND COMPOSITIONS FOR INHIBITING A NOXIOUS INSULT” (priority 2018, published 2024).
